Tested on: HCV pseudoparticles (genotype 1a HCV E1 and E2 envelope, H77C isolate)
Experiment: microbe, parasite or virus in culture
Format: cell-based, HCV genotype 1a (H77C isolate)
Details: Hepatitis C virus, Huh-7, 48 h, HCV pseudoparticle entry into Huh7 cells, luciferase measured 2 days after infection

Q: Which results are given for `CC1(C)CNCCCOc2ccc(cc2)CNc2nc(cc(OCC(F)(F)F)n2)Nc2ccc(cc2)C(=O)NC1` [Compound 3001]?
A: EC50 (average of duplicate): 106 nM; EC50 (class symbol): 100 to 1000 nM

Q: For `CC1(C)CNCCCOc2ccc(cc2)CNc2cc(OCC(F)(F)F)nc(n2)Nc2ccc(cc2)C(=O)NC1` [Compound 3002], which EC50 (class symbol) is on record?
A: Its EC50 is under 100 nM.

Reference: patent publication US8697706B2 (priority 2011, dated 2014)
